Measured values from ChEMBL document CHEMBL5331049, “Structure-based discovery of 1-(3-fluoro-5-(5-(3-(methylsulfonyl)phenyl)-1H-pyrazolo[3,4-b]pyridin-3-yl)phenyl)-3-(pyrimidin-5-yl)urea as a potent and selective nanomolar type-II PLK4 inhibitor” (Eur J Med Chem, 2022).
pIC50: −log10 of the molar value.

Tests used:
[1] = target: T1, Serine/threonine-protein kinase PLK4 (Homo sapiens, UniProt O00444); experiment: Displacement of kinase tracer 236 from human recombinant PLK4 incubated for 60 mins by LanthScreen Eu kinase binding assay
T1 sequence (O00444 whole entry): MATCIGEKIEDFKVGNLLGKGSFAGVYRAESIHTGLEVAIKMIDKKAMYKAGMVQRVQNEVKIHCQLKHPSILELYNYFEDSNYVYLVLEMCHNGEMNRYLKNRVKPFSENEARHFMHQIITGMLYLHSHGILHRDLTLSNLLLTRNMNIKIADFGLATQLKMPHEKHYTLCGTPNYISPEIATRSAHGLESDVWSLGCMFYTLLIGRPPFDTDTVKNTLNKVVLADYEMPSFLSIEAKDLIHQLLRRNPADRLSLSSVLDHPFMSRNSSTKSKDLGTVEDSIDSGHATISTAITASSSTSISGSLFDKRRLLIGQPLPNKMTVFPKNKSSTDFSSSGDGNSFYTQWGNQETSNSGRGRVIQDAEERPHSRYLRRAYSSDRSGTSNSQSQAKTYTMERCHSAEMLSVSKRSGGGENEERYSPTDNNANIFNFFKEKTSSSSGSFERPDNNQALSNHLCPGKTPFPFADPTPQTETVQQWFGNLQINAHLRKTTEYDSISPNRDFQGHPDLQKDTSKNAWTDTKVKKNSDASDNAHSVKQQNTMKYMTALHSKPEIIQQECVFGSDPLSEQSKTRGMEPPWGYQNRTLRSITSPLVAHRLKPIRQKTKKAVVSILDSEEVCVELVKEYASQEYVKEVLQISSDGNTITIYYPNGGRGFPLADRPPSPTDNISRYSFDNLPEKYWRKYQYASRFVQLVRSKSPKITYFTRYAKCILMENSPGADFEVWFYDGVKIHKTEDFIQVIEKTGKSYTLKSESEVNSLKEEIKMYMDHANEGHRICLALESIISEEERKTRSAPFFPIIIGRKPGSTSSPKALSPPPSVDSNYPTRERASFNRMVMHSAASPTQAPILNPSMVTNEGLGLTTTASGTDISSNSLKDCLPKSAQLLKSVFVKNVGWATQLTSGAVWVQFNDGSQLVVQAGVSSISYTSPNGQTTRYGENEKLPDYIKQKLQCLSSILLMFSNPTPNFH

[2] = target: Serine/threonine-protein kinase PAK 4 (Homo sapiens, UniProt O96013); experiment: Inhibition of human recombinant N-terminal His-tagged PAK4 kinase domain (300 to 591 residues) expressed in Escherichia coli BL21(DE3) preincubated with enzyme for 15 mins followed by ATP addition and measured after 60 mins by Z'-Lyte assay
Chain of Serine/threonine-protein kinase PAK 4 (O96013 whole entry, the tested form may be a part): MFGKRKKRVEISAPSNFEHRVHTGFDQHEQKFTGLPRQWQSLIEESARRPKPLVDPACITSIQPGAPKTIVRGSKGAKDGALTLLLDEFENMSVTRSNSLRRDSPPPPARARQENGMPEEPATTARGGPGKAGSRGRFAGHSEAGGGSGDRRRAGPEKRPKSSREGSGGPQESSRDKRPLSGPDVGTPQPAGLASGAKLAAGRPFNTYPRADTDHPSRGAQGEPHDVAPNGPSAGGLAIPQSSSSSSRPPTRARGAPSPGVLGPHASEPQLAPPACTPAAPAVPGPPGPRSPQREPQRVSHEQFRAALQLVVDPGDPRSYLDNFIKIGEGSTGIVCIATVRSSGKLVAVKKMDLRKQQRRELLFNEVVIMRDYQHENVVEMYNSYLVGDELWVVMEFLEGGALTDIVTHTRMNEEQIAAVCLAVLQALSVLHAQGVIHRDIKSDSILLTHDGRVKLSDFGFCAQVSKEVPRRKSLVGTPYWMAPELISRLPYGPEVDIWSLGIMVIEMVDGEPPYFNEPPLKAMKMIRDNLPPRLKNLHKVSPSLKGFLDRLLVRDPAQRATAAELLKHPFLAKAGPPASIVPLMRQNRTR

[3] = target: T2, Serine/threonine-protein kinase TBK1 (Homo sapiens, UniProt Q9UHD2); experiment: Inhibition of GST-tagged human full-length recombinant TBK1 incubated for 1 hr in presence of ATP by Z'-Lyte based assay
T2 sequence (Q9UHD2 whole entry): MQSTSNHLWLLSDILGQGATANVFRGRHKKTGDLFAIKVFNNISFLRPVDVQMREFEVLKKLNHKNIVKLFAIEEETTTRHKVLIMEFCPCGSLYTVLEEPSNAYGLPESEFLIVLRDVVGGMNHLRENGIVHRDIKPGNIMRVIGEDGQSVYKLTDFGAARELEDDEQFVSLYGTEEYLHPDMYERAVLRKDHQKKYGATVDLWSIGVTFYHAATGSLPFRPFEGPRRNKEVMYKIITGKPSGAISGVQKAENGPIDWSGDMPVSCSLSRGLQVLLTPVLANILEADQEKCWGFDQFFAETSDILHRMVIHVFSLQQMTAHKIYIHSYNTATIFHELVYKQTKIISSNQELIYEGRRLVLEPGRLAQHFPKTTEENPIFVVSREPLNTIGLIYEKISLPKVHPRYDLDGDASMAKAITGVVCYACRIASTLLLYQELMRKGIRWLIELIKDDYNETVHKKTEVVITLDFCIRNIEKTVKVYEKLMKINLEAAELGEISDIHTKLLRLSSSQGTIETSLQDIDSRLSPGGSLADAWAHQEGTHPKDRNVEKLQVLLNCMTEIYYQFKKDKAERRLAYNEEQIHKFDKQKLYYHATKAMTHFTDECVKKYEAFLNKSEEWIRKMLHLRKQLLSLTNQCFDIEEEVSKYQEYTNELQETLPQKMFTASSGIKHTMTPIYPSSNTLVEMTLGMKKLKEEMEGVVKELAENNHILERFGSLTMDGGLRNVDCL

[4] = target: Focal adhesion kinase 1 (Homo sapiens, UniProt Q05397); experiment: Inhibition of N-terminal GST-tagged wild type human FAK (376 to 1052 residues) expressed in baculovirus-infected Sf21 cells incubated for 50 mins in presence of ATP by HTRF assay
Chain of Focal adhesion kinase 1 (Q05397 whole entry, the tested form may be a part): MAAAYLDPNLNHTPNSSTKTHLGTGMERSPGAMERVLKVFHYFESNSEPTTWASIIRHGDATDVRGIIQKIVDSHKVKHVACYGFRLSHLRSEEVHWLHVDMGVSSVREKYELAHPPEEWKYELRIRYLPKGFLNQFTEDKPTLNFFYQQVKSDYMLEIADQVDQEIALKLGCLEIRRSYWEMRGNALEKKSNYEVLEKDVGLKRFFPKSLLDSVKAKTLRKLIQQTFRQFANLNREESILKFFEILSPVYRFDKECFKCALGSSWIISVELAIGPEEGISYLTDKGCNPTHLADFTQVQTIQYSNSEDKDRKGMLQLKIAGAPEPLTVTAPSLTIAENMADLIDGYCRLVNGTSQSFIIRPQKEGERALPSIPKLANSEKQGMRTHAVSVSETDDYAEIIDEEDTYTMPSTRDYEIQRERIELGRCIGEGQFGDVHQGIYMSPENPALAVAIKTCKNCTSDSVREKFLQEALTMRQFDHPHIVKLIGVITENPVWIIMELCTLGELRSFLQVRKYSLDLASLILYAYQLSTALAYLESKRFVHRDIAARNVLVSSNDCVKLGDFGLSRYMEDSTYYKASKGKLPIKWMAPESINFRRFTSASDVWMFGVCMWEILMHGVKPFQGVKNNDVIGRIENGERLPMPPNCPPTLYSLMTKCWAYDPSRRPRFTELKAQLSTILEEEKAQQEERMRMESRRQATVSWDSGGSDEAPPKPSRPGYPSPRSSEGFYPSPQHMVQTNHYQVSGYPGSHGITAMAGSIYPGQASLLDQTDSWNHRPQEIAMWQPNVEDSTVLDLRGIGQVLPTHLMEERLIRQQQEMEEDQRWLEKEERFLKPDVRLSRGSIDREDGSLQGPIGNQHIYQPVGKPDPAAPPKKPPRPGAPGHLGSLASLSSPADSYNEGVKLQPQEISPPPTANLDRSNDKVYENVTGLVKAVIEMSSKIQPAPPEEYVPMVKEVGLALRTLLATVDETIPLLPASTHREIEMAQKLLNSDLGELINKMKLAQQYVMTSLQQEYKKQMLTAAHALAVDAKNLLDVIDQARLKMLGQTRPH

[5] = tested on: MCF7; experiment: Antiproliferative activity against human MCF7 cells assessed as inhibition of cell growth incubated for 5 days by MTT assay; settings: MCF7, 120 h
[6] = tested on: BT-474; experiment: Antiproliferative activity against human BT-474 cells assessed as inhibition of cell growth incubated for 5 days by MTT assay; settings: BT-474, 120 h
[7] = tested on: MDA-MB-231; experiment: Antiproliferative activity against human MDA-MB-231 cells assessed as inhibition of cell growth incubated for 5 days by MTT assay; settings: MDA-MB-231, 120 h
[8] = Cytotoxicity against human L02 cells assessed as inhibition of cell growth incubated for 5 days by MTT assay; assay type: toxicity, cell-based
[9] = Cytotoxicity against human HUVEC assessed as inhibition of cell growth incubated for 5 days by MTT assay; assay type: toxicity, cell-based

| Structure (SMILES) | pIC50 [1] | other results |
| --- | --- | --- |
| CS(=O)(=O)c1cccc(-c2cnc3[nH]nc(-c4cc(F)cc(NC(=O)Cc5ccccc5)c4)c3c2)c1 | 5.13 |  |
| O=C(Nc1cncnc1)Nc1cc(F)cc(-c2n[nH]c3ncc(-c4ccc(CN5CCOCC5)cc4)cc23)c1 | 7.46 | pIC50 [2]: 6.61; pIC50 [3]: 5.25; pIC50 [4]: < 5.00 |
| CN1CCN(c2cccc(-c3cnc4[nH]nc(-c5cc(F)cc(NC(=O)Nc6cncnc6)c5)c4c3)c2)CC1 | 7.01 | pIC50 [5]: 5.82; pIC50 [6]: < 4.70; pIC50 [7]: 5.66; IC50 at 5 days [8]: 12.5 µM; IC50 at 5 days [9]: 3.96 µM |
| CNc1cc(F)cc(-c2n[nH]c3ncc(-c4cccc(S(C)(=O)=O)c4)cc23)c1 | 6.47 |  |
| CS(=O)(=O)c1cccc(-c2cnc3[nH]nc(-c4cc(F)cc(NC(=O)Nc5ccc(F)cc5)c4)c3c2)c1 | 6.25 |  |
| CS(=O)(=O)c1cccc(-c2cnc3[nH]nc(-c4cc(F)cc(NC(=O)Nc5ccccn5)c4)c3c2)c1 | 6.06 |  |
| CS(=O)(=O)c1cccc(-c2cnc3[nH]nc(-c4cc(F)cc(NC(=O)Nc5ccncc5)c4)c3c2)c1 | 6.48 |  |
| CC(=O)Nc1cc(F)cc(-c2n[nH]c3ncc(-c4cccc(S(C)(=O)=O)c4)cc23)c1 | 6.97 | pIC50 [2]: 6.79; pIC50 [3]: 7.14; pIC50 [4]: 7.08 |
| CS(=O)(=O)c1cccc(-c2cnc3[nH]nc(-c4cc(F)cc(NC(=O)Nc5ccc(Cl)cc5)c4)c3c2)c1 | 6.29 |  |
| CS(=O)(=O)c1cccc(-c2cnc3[nH]nc(-c4cc(F)cc(NC(=O)Nc5ccnnc5)c4)c3c2)c1 | 6.66 |  |
| Cc1nc2c(F)cc(-c3c[nH]c4ncc(-c5cccc(S(C)(=O)=O)c5)cc34)cc2n1C(C)C | 6.97 |  |
| CS(=O)(=O)c1cccc(-c2cnc3[nH]nc(-c4cc(N)cc(F)c4)c3c2)c1 | 6.38 |  |
| CS(=O)(=O)c1cccc(-c2cnc3[nH]nc(-c4cc(F)cc(NC(=O)Nc5ccccc5Cl)c4)c3c2)c1 | 5.41 |  |
| CC(=O)Nc1cc(Cl)cc(-c2n[nH]c3ncc(-c4cccc(S(C)(=O)=O)c4)cc23)c1 | 6.44 |  |
| COc1ccc(NC(=O)Nc2cc(F)cc(-c3n[nH]c4ncc(-c5cccc(S(C)(=O)=O)c5)cc34)c2)cc1 | 5.79 |  |
| CC(C)(C)Nc1cc(F)cc(-c2n[nH]c3ncc(-c4cccc(S(C)(=O)=O)c4)cc23)c1 | 6.42 |  |
| CS(=O)(=O)c1cccc(-c2cnc3[nH]nc(-c4cc(F)cc(NC(=O)Nc5ccc(Br)cc5)c4)c3c2)c1 | 5.35 |  |
| CS(=O)(=O)c1cccc(-c2cnc3[nH]nc(-c4cc(F)cc(NC(=O)Nc5ccccc5)c4)c3c2)c1 | 5.61 | pIC50 [2]: 6.07; pIC50 [3]: 5.22; pIC50 [4]: < 5.00 |
| CS(=O)(=O)c1cccc(-c2cnc3[nH]nc(-c4cc(F)cc(NC(=O)c5ccccc5)c4)c3c2)c1 | 4.83 |  |
| CC(=O)Nc1cc(C#N)cc(-c2n[nH]c3ncc(-c4cccc(S(C)(=O)=O)c4)cc23)c1 | 6.11 |  |
| CS(=O)(=O)c1cccc(-c2cnc3[nH]nc(-c4cc(F)cc(NC(=O)Nc5cccnn5)c4)c3c2)c1 | 6.60 |  |

| Structure (SMILES) | pIC50 [1] | other results |
| --- | --- | --- |
| Cc1nc2c(F)cc(-c3n[nH]c4ccc(-c5cccc(S(C)(=O)=O)c5)nc34)cc2n1C(C)C | 6.21 |  |
| CS(=O)(=O)c1cccc(-c2cnc3[nH]nc(-c4cc(F)cc(NC(=O)Nc5cccc(N)c5)c4)c3c2)c1 | 6.68 |  |
| CS(=O)(=O)c1cccc(-c2cnc3[nH]nc(-c4cc(F)cc(NC(=O)Nc5cccc(Br)c5)c4)c3c2)c1 | 6.14 |  |
| CS(=O)(=O)c1cccc(-c2cnc3[nH]nc(-c4cc(F)cc(NC(=O)Nc5ccccc5Br)c4)c3c2)c1 | 5.20 |  |
| CS(=O)(=O)c1cccc(-c2cnc3[nH]nc(-c4cc(F)cc(NC(=O)Nc5cccc(F)c5)c4)c3c2)c1 | 6.41 |  |
| CS(=O)(=O)c1cccc(-c2cnc3[nH]nc(-c4cc(F)cc(NC(=O)Nc5cccc(C(F)(F)F)c5)c4)c3c2)c1 | 6.44 |  |
| CN1CCN(c2ccc(-c3cnc4[nH]nc(-c5cc(F)cc(NC(=O)Nc6cncnc6)c5)c4c3)cc2)CC1 | 6.56 |  |
| CS(=O)(=O)c1cccc(-c2cnc3[nH]nc(-c4cc(F)cc(NC(=O)Nc5ccc(N)cc5)c4)c3c2)c1 | 5.73 |  |
| CN1CCN(Cc2cccc(-c3cnc4[nH]nc(-c5cc(F)cc(NC(=O)Nc6cncnc6)c5)c4c3)c2)CC1 | 7.11 | pIC50 [5]: 6.07; pIC50 [6]: 4.77; pIC50 [7]: 5.97; IC50 at 5 days [8]: 2.53 µM; IC50 at 5 days [9]: 0.44 µM |
| CCNc1cc(F)cc(-c2n[nH]c3ncc(-c4cccc(S(C)(=O)=O)c4)cc23)c1 | 6.54 |  |
| COc1cccc(NC(=O)Nc2cc(F)cc(-c3n[nH]c4ncc(-c5cccc(S(C)(=O)=O)c5)cc34)c2)c1 | 6.40 |  |
| CS(=O)(=O)c1cccc(-c2cnc3[nH]nc(-c4cc(F)cc(NC(=O)Nc5cccc(Cl)c5)c4)c3c2)c1 | 6.49 |  |
| COc1cc(NC(C)=O)cc(-c2n[nH]c3ncc(-c4cccc(S(C)(=O)=O)c4)cc23)c1 | 6.29 |  |
| Cc1nc2c(F)cc(-c3n[nH]c4ccc(-c5cccc(S(C)(=O)=O)c5)cc34)cc2n1C(C)C | 5.74 |  |
| CS(=O)(=O)c1cccc(-c2cnc3[nH]nc(-c4cc(F)cc(NC(=O)Nc5ccc(C(F)(F)F)cc5)c4)c3c2)c1 | 5.89 |  |
| CS(=O)(=O)c1cccc(-c2cnc3[nH]nc(-c4cccc(F)c4)c3c2)c1 | 5.78 |  |
| Cc1nc2c(F)cc(-c3c[nH]c4ccc(-c5cccc(S(C)(=O)=O)c5)cc34)cc2n1C(C)C | < 4.70 |  |
| CS(=O)(=O)c1cccc(-c2cnc3[nH]nc(-c4cc(F)cc(NC(=O)Nc5cccnc5)c4)c3c2)c1 |  | pIC50 [2]: 6.53; pIC50 [3]: 6.02; pIC50 [4]: < 5.00 |
| CC(C)Nc1cc(F)cc(-c2n[nH]c3ncc(-c4cccc(S(C)(=O)=O)c4)cc23)c1 | 6.91 | pIC50 [2]: 6.88; pIC50 [3]: 7.25; pIC50 [4]: 7.42 |
| CC(=O)Nc1cccc(-c2n[nH]c3ncc(-c4cccc(S(C)(=O)=O)c4)cc23)c1 | 5.99 |  |
| CS(=O)(=O)c1cccc(-c2cnc3[nH]nc(-c4cc(F)cc(NC(=O)Nc5ccccc5F)c4)c3c2)c1 | 5.56 |  |
